Patent publication US5180742A, “Quinone derivatives, their production and use” (Takeda Chemical Industries, Ltd., priority 1984, dated 1993)

Experiments:
[1] = tested on: O2^- production in guinea pigs peritoneal macrophages; test: Inhibitory effect on O2- production in guinea pig peritoneal macrophages (chemiluminescence); assay type: cell-based, guinea pig (Hartley); conditions: Cavia porcellus, Peritoneal macrophage, 3 experiments; for inhibition at 100 µM: 10^-4 M; for inhibition at 10 µM: 10^-5 M; for inhibition at 1 µM: 10^-6 M
Experimental: Superoxide (O2^-) Production in Guinea Pig Peritoneal Macrophages
Male Hartley guinea pigs weighing 400-450 g were given intraperitoneally 5 ml of liquid paraffin. Four days later, 15 ml of Hank's buffer were administered into the peritoneal cavity for harvest of peritoneal cells. Macrophages in the peritoneal cells were purified by the method of Wood, P. R. [J. Immunol. Methods, 28, 117-124 (1979)].
The purity of macrophages was more than 95%. The reaction mixture contained 75 μl of macrophages (1×10^7 cells/ml), 5 μl of luminol, 10 μl of phorbol myristate acetate and 10 μl of drugs in a total volume of 100 μl. O2^- Product was assayed by chemiluminescence. Drugs were dissolved in a 10% dimethyl sulfoxide.

[2] = tested on: Immunoglobulin-G1 mediated bronchoconstriction reaction; test: Action on immunoglobulin-G1 mediated bronchoconstriction reaction in guinea pigs; assay type: in vivo, Hartley guinea pigs; conditions: Cavia porcellus; 20 mg/kg oral, 1 hour before antigen
Experimental: Action on the Immunoglobulin-G1 Mediated Bronchoconstriction Reaction in Guinea Pigs
In accordance with the method of Orange and Moore (Orange, R. P. and Moore E. G. , J. Immunol., 116, 392-397, 1976), female and male Hartley guinea pigs weighing about 350 g were sensitized by intraperitoneal application of an emulsion (1 ml) composed of egg albumin (1 mg) and Freund's complete adjuvant (produced by Wako Pure-Chemical Industries, Ltd. of Japan). 3 Weeks after the sensitization, a serum antibody level in the sensitized guinea pigs was measured by means of the 3-hours passive cutaneous anaphylaxis (PCA) reaction in guinea pigs. […] The broncoconstriction reaction resulting from the antigen-antibody reaction was measured in accordance with the Konzett-Rossler method (Konzett, H. and Rossler, R., Naunyn-Schmiedeberg'ss Arch. exp. Path. pharmak., 195, 71-74, 1940). The guinea pigs were fixed on the dorsal position under anesthesia with a urethane (1.5 g/kg given intraperitonealy). An incision was made through the trachea, which was connected to an artificial respirator (manufactured by Harvard Co.) through an endotracheal tube, with a side tube of the endotracheal tube being attached to a brochoconstricting transducer (type 7020, manufactured by Ugobasile Co.). While an air volume per ventilation was adjusted to 5 to 7 ml and an air ventilation rate was controlled at 70 times/min., with a load pressure to the lung set at 10 cm H2 O, the overflown air volume was recorded on Rectigraphy-8S (manufactured by Sanei Sokki Inc. of Japan) through a transducer. After 1 mg/kg of gallamine triethiodide was given intravenously to the animals, 1 mg/kg of antigen, egg albumin dissolved in physiological saline, was applied intravenously to induce a brochoconstriction reaction. The bronchconstriction reaction was recorded for the period of time of 15 minutes. A drug was suspended in 5% gum arabic solution, and given orally 1 hour before the application of the antigen. Percent inhibition of the immunoglobuin G1 mediated bronchoconstriction reaction in guinea pigs are shown below in Table 3.

[3] = tested on: LTD4-induced bronchoconstriction; test: Effect on LTD4-induced bronchoconstriction in guinea pigs; assay type: in vivo
Experimental: Effect on LTD4 -Induced Brochoconstriction in Guinea Pigs
Bronchoconstriction in guinea pigs was measured by the method of Konzett-Rossler[Naunyn-Schmiedeberg's Arch. exp. Path. Pharmak., 195, 71-74(1940)]. The animals were anesthetized with urethane (1.5 g/kg, intraperitoneally) and the trachea was cannulated. The animals were artificially ventilated by means of a respirator (Harvard apparatus rodent respirator) at a rate of 70 strokes/min and a constant volume of 5-7 ml. Inflation pressure was kept constantly at 10 cm H2 O. Changes in overflow of air from a side-arm of the cannula were recorded on Rectigraph-8S via a bronchospasm transducer for 15 min. LTD4 (10 μg/kg) was given into the […] through an indwelling cannula. Each specimen suspended in a 5% gum arabic solution was also given through the same cannula 1 or 24 hrs before the LTD4 administraction.

[4] = tested on: SRS-A generation in rats pleural exudate; test: Effects on SRS-A generation in pleural exudate in rat reversed passive Arthus pleurisy; assay type: in vivo
Experimental: (§1) Effects on Increased Vascular Permeability and Slow Reacting Substance of Anaphylaxis (SRS-A) Generation in Rat Reversed Passive Arthus Pleurisy
(§2) The rat reversed passive Arthus pleurisy was induced by the method of Yamamoto et al. Agents Actions, 5, 374-377 (1975)]. Rats were given 1 ml of saline containing 5 mg of egg albumin intravenously followed 0.2 ml of rabbit anti-agg albumin antiserum injected into the pleural cavity. Just after that, 0.5 ml of saline contained 1% Evans blue was administered intravenously to the rats. 30 Minutes later, the animals were killed by bleeding, and the pleural cavity was rinsed with 2 ml of saline. The concentrations of the dye in the pleural exudate and the peripheral blood were measured to calculate the volume of serum infiltrated into the pleural cavity. The vascular permeability (dye concentration in pleural cavity/dye concentration in peripheral blood) was expressed as μl serum/30 min. On the other hand, the amount of SRS-A generated in the pleural cavity was determined by the following procedures. 30 Minutes after induction of the pleurisy, the aminals were killed by bleeding and the pleural cavity was rinsed with 2 ml of saline. 9 Milliliter of cold absolute ethanol were immediately added to the rinsed solution. The mixture was allowed to stand at 4° C. for 30 min. After the mixture was centrifuged at 3000 r.p.m. for 10 min, the supernatant was concentrated by evaporation. The resulting residue was dissolved in 0.5 ml of saline. The amount of SRS-A generated was bioassayed using guinea pig ileum.

[5] = tested on: vascular permeability during early response of rat reversed passive Arthus pleurisy; test: Effects on vascular permeability in rat reversed passive Arthus pleurisy; assay type: in vivo
Experimental: as §1, §2

Row | Structure (SMILES) | inhibition at 100 µM [1] | inhibition at 10 µM [1] | inhibition at 1 µM [1] | inhibition in vivo at 20 mg/kg [2] | % Inhibition of LTD4-induced bronchoconstriction ([3]; 0.313 mg/kg, 1 hr. before LTD4) | % Inhibition of LTD4-induced bronchoconstriction ([3]; 1.25 mg/kg, 1 hr. before LTD4) | % Inhibition of LTD4-induced bronchoconstriction ([3]; 5 mg/kg, 1 hr. before LTD4) | % Inhibition of LTD4-induced bronchoconstriction ([3]; 5 mg/kg, 24 hrs. before LTD4) | % Inhibition of SRS-A generation in pleural exudate ([4]; 0.1 mg/rat) | % Inhibition of SRS-A generation in pleural exudate ([4]; 1 mg/rat) | % Inhibition of vascular permeability ([5]; 0.1 mg/rat) | % Inhibition of vascular permeability ([5]; 1 mg/rat)
1 | CC1=C(C)C(=O)C(C(CCCCCC(=O)O)c2ccccc2)=C(C)C1=O (stereo not drawn) [Compound No. 50, 7-(3,5,6-trimethyl-1,4-benzoquinon-2-yl)-7-phenylheptanoic acid] | 88 ± 2% | 38 ± 3% | 16 ± 6% | 76% | 58% | 77% | 94% | 72% | 49% | 77% | 21% | 47%
2 | CC1=C(C)C(=O)C(C(CCCCCC(=O)O)c2ccc(C)cc2)=C(C)C1=O (stereo not drawn) [Compound No. 93] | 91 ± 3% | 33 ± 12% | 9 ± 6% | 83% | 73% | 83% | 85% | 53% | -6% | 56% | 14% | 43%
